Laboratory results: PubChem BioAssay AID244 (DTP/NCI, 2004)
Several values for one entry are separate records, joined by “and”; a condition that tells them apart may be missing. Identical values can stand only once. Records with an inconclusive call do not appear. *1 amine or outer side, *2 acyl side, *3 side chain or, on linkers, in order; H or OH if unused. Where a SMILES comes first, the peptide text is derived from it. Bridges are numbered along the chain shown (N, C = ends). Roman numbers before positions name the chains, in order. [ ]: non-standard residue; d: D form. Actinocin(9to1) = Cc1c2oc3c(C)ccc(C(=O)[*:1])c3nc-2c(C(=O)[*:2])c(N)c1=O; aThr = C[C@H](O)[C@H](N)C(=O)O; NMeV = CN[C@H](C(=O)O)C(C)C; Sar = CNCC(=O)O

System: CD2F1 mice, Lymphoma 8 ip, survival T/C
Experiment: NCI In Vivo Anticancer Drug Screen. Data for tumor model Lymphoma 8 (intraperitoneal) in CD2F1 (CDF1) mice
Conditions: vehicle: saline, higher = longer survival
Description: The antitumor activity of compounds was measured in mice bearing transplantable tumors. Survival or tumor size were measured and the results are expressed as the measurement made in the treated group (T) divided by the measurement made in the vehicle treated control group (C). The tumor model used in this assay is Lymphoma 8 (intraperitoneal) in CD2F1 (CDF1) mice

O=C1C=C(C2OC(CO)C(O)C2O)C(=O)N1 (centres undefined)
T/C (endpoint: median survival time, dose: 2.0 mg/kg/injection, schedule: Q01DX010 (ip)): 92 % of control
T/C (endpoint: median survival time, dose: 4.0 mg/kg/injection, schedule: Q01DX010 (ip)): 92 % of control
T/C (endpoint: median survival time, dose: 8.0 mg/kg/injection, schedule: Q01DX005 (ip)): 75 % of control
T/C (endpoint: median survival time, dose: 8.0 mg/kg/injection, schedule: Q01DX010 (ip)): 100 % of control
T/C (endpoint: median survival time, dose: 16.0 mg/kg/injection, schedule: Q01DX005 (ip)): 43 % of control
T/C (endpoint: median survival time, dose: 32.0 mg/kg/injection, schedule: Q01DX005 (ip)): 17 % of control

Cc1c2oc3c(C)ccc(C(=O)N[C@@H]4C(=O)N[C@H](C(C)C)C(=O)N5CCC[C@H]5C(=O)N(C)CC(=O)N(C)[C@@H](C(C)C)C(=O)O[C@H]4C)c3nc-2c(C(=O)N[C@@H]2C(=O)N[C@H](C(C)C)C(=O)N3CCC[C@H]3C(=O)N(C)CC(=O)N(C)[C@@H](C(C)C)C(=O)O[C@H]2C)c(N)c1=O (I: [aThr][dV]P[Sar][NMeV] / II: [aThr][dV]P[Sar][NMeV]; ester I:1-I:C, II:1-II:C; linker I:N-II:N via Actinocin(9to1))
T/C (endpoint: median survival time, dose: 0.05 mg/kg/injection, schedule: Q01DX002 (ip)): 103 % of control
T/C (endpoint: median survival time, dose: 0.05 mg/kg/injection, schedule: Q04DX002 (ip)): 100 % of control
T/C (endpoint: median survival time, dose: 0.1 mg/kg/injection, schedule: Q04DX002 (ip)): 92 % of control
T/C (endpoint: median survival time, dose: 0.2 mg/kg/injection, schedule: Q01DX002 (ip)): 106 % of control
T/C (endpoint: median survival time, dose: 0.2 mg/kg/injection, schedule: Q04DX002 (ip)): 100 % of control

N[C@H](C(=O)O)[C@@H]1CC(Cl)=NO1
T/C (endpoint: median survival time, dose: 0.38 mg/kg/injection, schedule: Q01DX009 (ip)): 105 % of control
T/C (endpoint: median survival time, dose: 0.75 mg/kg/injection, schedule: Q01DX009 (ip)): 115 % of control
T/C (endpoint: median survival time, dose: 1.5 mg/kg/injection, schedule: Q01DX009 (ip)): 118 % of control

O=CC(S)CO (centres undefined)
T/C (endpoint: median survival time, dose: 25.0 mg/kg/injection, schedule: Q01DX010 (ip)): 92 % of control
T/C (endpoint: median survival time, dose: 50.0 mg/kg/injection, schedule: Q01DX010 (ip)): 92 % of control
T/C (endpoint: median survival time, dose: 100.0 mg/kg/injection, schedule: Q01DX010 (ip)): 100 % of control

CC(=O)Nc1c(Cl)cc2c(c1Cl)Cc1cc([N+](=O)[O-])ccc1-2
T/C (endpoint: survival time, mean or median, dose: 3.9 mg/kg/injection, schedule: Q01DX010 (ip)): 87 % of control

NCCC(N)=O
T/C (endpoint: median survival time, dose: 50.0 mg/kg/injection, schedule: Q01DX005 (ip)): 92 % of control and 94 % of control
T/C (endpoint: median survival time, dose: 100.0 mg/kg/injection, schedule: Q01DX005 (ip)): 92 % of control and 94 % of control
T/C (endpoint: median survival time, dose: 200.0 mg/kg/injection, schedule: Q01DX005 (ip)): 92 % of control and 94 % of control
T/C (endpoint: median survival time, dose: 400.0 mg/kg/injection, schedule: Q01DX005 (ip)): 92 % of control and 94 % of control

NC(C(=O)O)C(F)(F)C(=O)O (centres undefined)
T/C (endpoint: median survival time, dose: 3.12 mg/kg/injection, schedule: Q01DX009 (ip)): 93 % of control
T/C (endpoint: median survival time, dose: 6.25 mg/kg/injection, schedule: Q01DX009 (ip)): 97 % of control
T/C (endpoint: median survival time, dose: 12.5 mg/kg/injection, schedule: Q01DX009 (ip)): 87 % of control and 89 % of control
T/C (endpoint: median survival time, dose: 25.0 mg/kg/injection, schedule: Q01DX009 (ip)): 100 % of control
T/C (endpoint: median survival time, dose: 50.0 mg/kg/injection, schedule: Q01DX009 (ip)): 107 % of control

Nc1ncnc2[nH]ncc12
T/C (endpoint: survival time, mean or median, dose: 1.5 mg/kg/injection, schedule: Q01DX010 (ip)): 90 % of control and 95 % of control
T/C (endpoint: survival time, mean or median, dose: 3.0 mg/kg/injection, schedule: Q01DX010 (ip)): 100 % of control
T/C (endpoint: survival time, mean or median, dose: 6.0 mg/kg/injection, schedule: Q01DX010 (ip)): 90 % of control and 95 % of control
T/C (endpoint: survival time, mean or median, dose: 12.0 mg/kg/injection, schedule: Q01DX010 (ip)): 90 % of control

Nc1nc(=S)c2ncn(C3OC(CO)C(O)C3O)c2[nH]1 (centres undefined)
T/C (endpoint: survival time, mean or median, dose: 4.0 mg/kg/injection, schedule: Q01DX010 (ip)): 150 % of control
T/C (endpoint: survival time, mean or median, dose: 8.0 mg/kg/injection, schedule: Q01DX010 (ip)): 118 % of control
T/C (endpoint: survival time, mean or median, dose: 16.0 mg/kg/injection, schedule: Q01DX010 (ip)): 86 % of control
